Molecular target: T1, recombinant full length LRRK2 protein over-expressed in SH-SY5Y cells (Homo sapiens, UniProt Q5S007)
T1 construct: engineered to over-express recombinant full length LRRK2 protein; host or cells: SH-SY5Y human neuroblastoma cells transduced with BacMam LRRK2 virus
Assay: Recombinant cellular LRRK2 AlphaScreen assay (LRRK2 Ser935 phosphorylation)
Format: cell-based
Conditions: human neuroblastoma SH-SY5Y cells over-expressing recombinant full length LRRK2, 60 minutes compound incubation, read-out: pIC50 in the recombinant cellular LRRK2 AlphaScreen assay (converted)
Source text: b. Recombinant Cellular LRRK2 AlphaScreen Assay
To determine the activity of compounds against LRRK2 kinase activity in cells, the observed LRRK2 kinase-dependent modulation of LRRK2 Ser 935 phosphorylation (Dzamko et al., 2010, Biochem. J. 430: 405-413) was utilized to develop a quantitative 384 well plate-based immunoassay of LRRK2 Ser935 phosphorylation in the human neuroblastoma cell line SH-SY5Y, engineered to over-express recombinant full length LRRK2 protein.
A BacMam virus expressing full length recombinant LRRK2 was purchased from Invitrogen and amplified by inoculation of SF-9 cells at MOI 0.3 for 4-5 days in Sf-900 III SFM medium supplemented with 3% fetal bovine serum. Infected cell cultures were then centrifuged at 2000 g for 20 minutes, viral supernatant titer determined by anti-gp64 plaque assay and stored at 4° C.
Affinity-purified anti-phospho LRRK2 Ser935 sheep polyclonal antibody (Dzamko et al., 2010, Biochem. J. 430: 405-413) was biotinylated by standard methods (PerkinElmer). Anti-LRRK2 rabbit polyclonal antibody was purchased from Novus Biologicals. AlphaScreen Protein A IgG Kit (including acceptor and donor beads) was purchased from Perkin Elmer. […]
Serial dilutions of test compounds were prepared in Opti-MEM reduced serum media (Invitrogen) and 5.6 ul transferred from compound plate to cell assay plate to achieve a top final assay concentration of 10 uM. […] 10 ul of antibody/acceptor bead mix [(1/1000 biotinylated-pS935 LRRK2 antibody, 1/1000 total-LRRK2 antibody, 1/100 Acceptor beads in AlphaScreen detection buffer (25 mM Hepes (pH 7.4), 0.5% Triton X-100, 1 mg/ml Dextran 500 and 0.1% BSA)] was then added to each well and plates incubated for 2 hours at ambient temperature in the dark. 10 μl of donor beads solution (1/33.3 donor beads in AlphaScreen detection buffer) was then added to each well. Following incubation for a further 2 hours at ambient temperature in the dark, plates were read on an EnVision™ plate reader at emission 520-620 nm with excitation 680 nm. […]

T1 sequence (Q5S007 whole entry): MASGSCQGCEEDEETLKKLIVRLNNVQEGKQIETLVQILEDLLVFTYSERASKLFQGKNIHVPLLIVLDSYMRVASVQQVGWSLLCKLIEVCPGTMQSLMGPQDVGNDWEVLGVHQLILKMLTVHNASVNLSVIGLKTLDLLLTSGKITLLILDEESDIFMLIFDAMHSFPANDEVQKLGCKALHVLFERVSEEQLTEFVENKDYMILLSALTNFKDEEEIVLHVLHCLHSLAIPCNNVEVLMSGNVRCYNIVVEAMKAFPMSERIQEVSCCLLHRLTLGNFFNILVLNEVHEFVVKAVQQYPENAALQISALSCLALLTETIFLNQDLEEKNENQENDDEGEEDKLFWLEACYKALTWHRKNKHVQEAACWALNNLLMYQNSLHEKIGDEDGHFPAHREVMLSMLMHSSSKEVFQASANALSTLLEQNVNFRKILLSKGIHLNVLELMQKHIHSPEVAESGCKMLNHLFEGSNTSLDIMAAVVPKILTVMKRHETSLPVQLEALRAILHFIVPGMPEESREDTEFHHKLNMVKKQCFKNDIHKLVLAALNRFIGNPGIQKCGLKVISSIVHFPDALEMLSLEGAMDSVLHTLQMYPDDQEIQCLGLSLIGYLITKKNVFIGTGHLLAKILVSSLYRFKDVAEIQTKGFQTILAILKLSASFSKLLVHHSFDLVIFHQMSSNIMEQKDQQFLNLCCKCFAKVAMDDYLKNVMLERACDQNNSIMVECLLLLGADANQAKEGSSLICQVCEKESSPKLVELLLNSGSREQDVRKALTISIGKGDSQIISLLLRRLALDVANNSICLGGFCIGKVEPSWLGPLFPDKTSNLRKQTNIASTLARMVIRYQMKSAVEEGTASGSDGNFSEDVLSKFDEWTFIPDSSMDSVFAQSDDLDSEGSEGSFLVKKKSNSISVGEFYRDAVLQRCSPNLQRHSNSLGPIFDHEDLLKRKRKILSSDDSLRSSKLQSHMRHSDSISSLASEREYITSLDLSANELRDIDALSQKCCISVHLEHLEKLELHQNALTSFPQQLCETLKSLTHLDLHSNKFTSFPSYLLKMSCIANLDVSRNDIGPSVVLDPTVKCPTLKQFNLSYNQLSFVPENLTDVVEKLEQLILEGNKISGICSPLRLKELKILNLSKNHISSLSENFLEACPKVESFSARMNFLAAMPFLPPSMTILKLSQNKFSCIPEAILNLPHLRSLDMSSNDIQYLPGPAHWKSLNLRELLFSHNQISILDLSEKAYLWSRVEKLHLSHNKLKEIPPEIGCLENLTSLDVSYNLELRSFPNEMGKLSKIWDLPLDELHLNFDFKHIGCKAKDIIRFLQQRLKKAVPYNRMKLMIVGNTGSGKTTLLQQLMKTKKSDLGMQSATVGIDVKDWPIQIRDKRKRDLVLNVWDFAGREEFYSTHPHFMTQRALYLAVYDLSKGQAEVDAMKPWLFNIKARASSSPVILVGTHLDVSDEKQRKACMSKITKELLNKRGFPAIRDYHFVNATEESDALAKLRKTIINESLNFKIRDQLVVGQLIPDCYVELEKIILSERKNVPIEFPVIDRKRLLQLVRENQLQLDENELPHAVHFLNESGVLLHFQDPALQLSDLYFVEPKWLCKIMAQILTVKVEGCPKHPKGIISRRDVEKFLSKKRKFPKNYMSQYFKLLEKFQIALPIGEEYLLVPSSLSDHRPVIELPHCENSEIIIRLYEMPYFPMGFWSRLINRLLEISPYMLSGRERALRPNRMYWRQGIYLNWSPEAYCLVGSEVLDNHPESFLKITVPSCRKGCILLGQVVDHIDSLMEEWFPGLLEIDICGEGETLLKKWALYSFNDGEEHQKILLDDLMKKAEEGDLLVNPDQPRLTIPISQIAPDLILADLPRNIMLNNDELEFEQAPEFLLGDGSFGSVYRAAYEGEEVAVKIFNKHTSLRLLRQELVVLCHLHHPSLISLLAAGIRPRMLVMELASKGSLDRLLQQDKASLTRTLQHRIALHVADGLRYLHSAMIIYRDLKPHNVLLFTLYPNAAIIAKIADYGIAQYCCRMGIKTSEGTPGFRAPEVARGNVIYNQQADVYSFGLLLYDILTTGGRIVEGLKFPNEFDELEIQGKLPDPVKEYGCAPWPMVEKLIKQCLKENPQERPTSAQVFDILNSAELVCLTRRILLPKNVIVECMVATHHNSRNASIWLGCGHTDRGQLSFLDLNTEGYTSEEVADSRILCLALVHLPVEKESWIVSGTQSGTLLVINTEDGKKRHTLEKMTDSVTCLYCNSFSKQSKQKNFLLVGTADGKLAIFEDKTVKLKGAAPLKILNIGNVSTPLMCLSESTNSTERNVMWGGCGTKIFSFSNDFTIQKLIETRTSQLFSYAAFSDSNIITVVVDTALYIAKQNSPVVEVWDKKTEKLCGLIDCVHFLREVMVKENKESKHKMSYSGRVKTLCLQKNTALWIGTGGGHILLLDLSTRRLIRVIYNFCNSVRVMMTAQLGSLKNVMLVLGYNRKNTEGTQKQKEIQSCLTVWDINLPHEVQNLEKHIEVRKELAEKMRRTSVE

IC50 [nM] | SMILES
5.01 | COc1nc(N2CCOCC2)cc(-n2ncc3cc(C)c(C4CCN(CCO)CC4F)cc32)n1 (single isomer, unassigned) [Example E1, 2-(3-fluoro-4-(1-(2-methoxy-6-morpholinopyrimidin-4-yl)-5-methyl-1H-indazol-6-yl)piperidin-1-yl)ethanol]
2 | COc1nc(N2CC(O)C2)cc(-n2ncc3cc(C)c(C4CCN(CCS(C)(=O)=O)CC4)cc32)n1 [Example E42, 1-(2-methoxy-6-(5-methyl-6-(1-(2-(methylsulfonyl)ethyl)piperidin-4-yl)-1H-indazol-1-yl)pyrimidin-4-yl)azetidin-3-ol]
6.31 | Cc1nc(N2CCO[C@@H](CO)C2)cc(-n2ncc3cc(C)c(C4CCN(CC(C)O)CC4F)cc32)n1 (single isomer, unassigned) [Example E29]

— US20200002323A1, “COMPOUNDS” (GLAXOSMITHKLINE INTELLECTUAL PROPERTY DEVELOPMENT LIMITED, priority 2017, published 2020)
